Assays:
Format in all cases: in vivo
Anthonomus grandis = test: Example B1: Activity against Anthonomus grandis; conditions: 72 h, 400 ppm spray on young cotton plants, 10 adult beetles, evaluated after 3 days, read-out: percentage reduction in population and percentage reduction in feeding damage (% activity)
Description: Young cotton plants are sprayed with an aqueous emulsion spray mixture comprising 400 ppm of active ingredient. After the spray coating has dried on, the plants are populated with 10 adult Anthonomus grandis and placed into a plastic container. 3 days later, the test is evaluated. The percentage reduction in population and the percentage reduction in feeding damage (% activity) are determined by comparing the number of dead beetles and the feeding damage between the treated and the untreated plants.

Aphis craccivora = test: Example B2: Activity against Aphis craccivora; conditions: 400 ppm spray on infected pea seedlings, 20° C., evaluated after 3 and 6 days, read-out: percentage reduction in population (% activity)
Description: Pea seedlings are infected with Aphis craccivora, subsequently sprayed with a spray mixture comprising 400 ppm of active ingredient and then incubated at 20° C. The test is evaluated after 3 and 6 days. The percentage reduction in population (% activity) is determined by comparing the number of dead aphids on the treated and untreated plants.

Ctenocephalides felis = test: Example B4: Activity against Ctenocephalides felis (systemic); conditions: 5 ppm in blood at 37°, fed through membrane, 20 adult fleas, evaluated after 24 and 48 hours, read-out: percentage reduction in population (% activity)
Description: Twenty adult fleas of the species Ctenocephalides felis are placed into a flat, round cage, both sides of which are covered with gauze. A container whose bottom is sealed with a Parafilm membrane is placed onto the cage. In the container there is blood which comprises 5 ppm of active ingredient and which is constantly heated at 37°. The fleas take up blood through the membrane. The test is evaluated 24 and 48 hours after setting up the experiment The percentage reduction in population (% activity) is determined by comparing the number of dead fleas when using treated and untreated blood. 24 hours after the treatment, the blood is replaced by fresh blood which has also been treated.

Diabrotica balteata = test: Example B5: Activity against Diabrotica balteata; conditions: 144 h, 400 ppm spray on maize seedlings, 10 larvae in the second stage, evaluated after 6 days, read-out: percentage reduction in population (% activity)
Description: Maize seedlings are sprayed with an aqueous emulsion spray mixture comprising 400 ppm of active ingredient. After the spray coating has dried on, the seedlings are populated with 10 Diabrotica balteata larvae in the second stage and transferred to a plastic container. The test is evaluated after 6 days. The percentage reduction in population (% activity) is determined by comparing the number of dead larvae between the treated and untreated plants.

Heliothis virescens = test: Example B6: Activity against Heliothis virescens; conditions: 144 h, 400 ppm spray on young soyabean plants, 10 caterpillars in the first stage, evaluated after 6 days, read-out: percentage reduction in population and in feeding damage (% activity)
Description: Young soyabean plants are sprayed with an aqueous emulsion spray mixture comprising 400 ppm of active ingredient. After the spray coating has dried on, the plants are populated with 10 Heliothis virescens caterpillars in the first stage and transferred to a plastic container. The test is evaluated after 6 days. The percentage reduction in population and in feeding damage (% activity) are determined by comparing the number of dead caterpillars and the feeding damage between the treated and untreated plants.

Myzus persicae = test: Example B8: Activity against Myzus persicae; conditions: 400 ppm spray on infected pea seedlings, 20°, evaluated after 3 and 6 days, read-out: percentage reduction in population (% activity)
Description: Pea seedlings are infected with Myzus persicae, subsequently sprayed with a spray mixture comprising 400 ppm of active ingredient and then incubated at 20°. The test is evaluated after 3 and 6 days. The percentage reduction in population (% activity) is determined by comparing the number of dead aphids on the treated and untreated plants.

Nephotettix cincticeps = test: Example B10: Activity against Nephotettix cincticeps; conditions: 504 h, 400 ppm spray on rice plants, larvae in the 2nd and 3rd stages, evaluated after 21 days, read-out: percentage reduction in population (% activity)
Description: Rice plants are sprayed with an aqueous emulsion spray mixture comprising 400 ppm of active ingredient. After the spray coating has dried on, the plants are populated with larvae in the 2nd and 3rd stages. The test is evaluated after 21 days. The percentage reduction in population (% activity) is determined by comparing the number of surviving leaf hoppers on the treated and untreated, plants.

Nilaparvata lugens = test: Example B12: Activity against Nilaparvata lugens; conditions: 504 h, 400 ppm spray on rice plants, larvae in the 2nd and 3rd stages, evaluated after 21 days, read-out: percentage reduction in population (% activity)
Description: Rice plants are sprayed with an aqueous emulsion spray mixture comprising 400 ppm of active ingredient. After the spray coating has dried on, the plants are populated with plant hopper larvae in the 2nd and 3rd stages. The test is evaluated after 21 days. The percentage reduction in population (% activity) is determined by comparing the number of surviving plant hoppers on the treated and untreated plants.

CN1COCN(Cc2ccc(Cl)nc2)/C1=N/[N+](=O)[O-] [Compound No. 1.2, 5-(2-Chloropyrid-5-ylmethyl)-3-methyl-4-nitroiminoperhydro-1,3,5-oxadiazine]
> 80%: inhibition at 400 ppm (Anthonomus grandis) | inhibition at 400 ppm (Aphis craccivora) | inhibition at 5 ppm (Ctenocephalides felis) | inhibition at 400 ppm (Diabrotica balteata) | inhibition at 400 ppm (Heliothis virescens) | inhibition at 400 ppm (Myzus persicae) | inhibition at 400 ppm (Nephotettix cincticeps) | inhibition at 400 ppm (Nilaparvata lugens)
